Usually IC50 stands for the point on the concentration scale where inhibition reaches its midpoint.

Counter-ions that a name gives are not always drawn.

The values below come from patent US6680333B2, “Imidazolidine derivatives, their preparation, their use and pharmaceutical preparations comprising them” (Aventis Pharma Deutschland GmbH, priority 2001, dated 2004).

The target of the assay is T1, adhesion of U937 cells (VLA-4) to hVCAM-1(1-3)-IgG (Homo sapiens, UniProt P05556+P13612).
T1 construct: the VLA-4 integrins, are supplied in their natural form as surface molecules on human U937 cells; host or cells: Human U937 cells carry endogenous VLA-4; The partner hVCAM-1(1-3)-IgG was made in transfected COS cells (ATCC CRL1651) and used as culture supernatant
T1 sequence (P13612 34-1032): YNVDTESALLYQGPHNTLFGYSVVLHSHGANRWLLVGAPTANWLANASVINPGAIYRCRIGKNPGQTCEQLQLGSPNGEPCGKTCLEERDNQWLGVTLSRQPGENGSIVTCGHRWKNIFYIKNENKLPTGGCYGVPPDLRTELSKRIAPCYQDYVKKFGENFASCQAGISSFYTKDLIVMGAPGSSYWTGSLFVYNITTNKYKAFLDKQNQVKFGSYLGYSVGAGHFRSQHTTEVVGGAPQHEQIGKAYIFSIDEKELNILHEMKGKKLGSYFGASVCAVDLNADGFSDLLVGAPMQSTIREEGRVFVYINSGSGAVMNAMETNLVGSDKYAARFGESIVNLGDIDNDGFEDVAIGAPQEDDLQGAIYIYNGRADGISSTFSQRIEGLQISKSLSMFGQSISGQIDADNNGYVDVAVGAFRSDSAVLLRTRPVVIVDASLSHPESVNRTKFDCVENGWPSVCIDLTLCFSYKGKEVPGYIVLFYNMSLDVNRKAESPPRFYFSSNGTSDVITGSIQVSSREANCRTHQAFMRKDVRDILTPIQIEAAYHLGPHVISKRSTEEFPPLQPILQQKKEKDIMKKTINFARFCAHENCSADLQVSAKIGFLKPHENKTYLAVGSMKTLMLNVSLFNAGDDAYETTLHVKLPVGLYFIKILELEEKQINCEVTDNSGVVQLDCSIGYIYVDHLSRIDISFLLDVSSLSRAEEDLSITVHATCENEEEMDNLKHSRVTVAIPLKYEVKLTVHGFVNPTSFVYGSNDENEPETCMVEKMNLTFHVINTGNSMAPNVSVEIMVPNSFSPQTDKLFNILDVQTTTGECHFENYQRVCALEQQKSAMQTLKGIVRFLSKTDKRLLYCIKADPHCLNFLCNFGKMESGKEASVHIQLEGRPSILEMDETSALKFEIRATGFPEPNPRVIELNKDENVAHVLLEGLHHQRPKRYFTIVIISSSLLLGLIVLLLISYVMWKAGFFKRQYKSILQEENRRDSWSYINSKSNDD
T1 sequence (P05556 21-798): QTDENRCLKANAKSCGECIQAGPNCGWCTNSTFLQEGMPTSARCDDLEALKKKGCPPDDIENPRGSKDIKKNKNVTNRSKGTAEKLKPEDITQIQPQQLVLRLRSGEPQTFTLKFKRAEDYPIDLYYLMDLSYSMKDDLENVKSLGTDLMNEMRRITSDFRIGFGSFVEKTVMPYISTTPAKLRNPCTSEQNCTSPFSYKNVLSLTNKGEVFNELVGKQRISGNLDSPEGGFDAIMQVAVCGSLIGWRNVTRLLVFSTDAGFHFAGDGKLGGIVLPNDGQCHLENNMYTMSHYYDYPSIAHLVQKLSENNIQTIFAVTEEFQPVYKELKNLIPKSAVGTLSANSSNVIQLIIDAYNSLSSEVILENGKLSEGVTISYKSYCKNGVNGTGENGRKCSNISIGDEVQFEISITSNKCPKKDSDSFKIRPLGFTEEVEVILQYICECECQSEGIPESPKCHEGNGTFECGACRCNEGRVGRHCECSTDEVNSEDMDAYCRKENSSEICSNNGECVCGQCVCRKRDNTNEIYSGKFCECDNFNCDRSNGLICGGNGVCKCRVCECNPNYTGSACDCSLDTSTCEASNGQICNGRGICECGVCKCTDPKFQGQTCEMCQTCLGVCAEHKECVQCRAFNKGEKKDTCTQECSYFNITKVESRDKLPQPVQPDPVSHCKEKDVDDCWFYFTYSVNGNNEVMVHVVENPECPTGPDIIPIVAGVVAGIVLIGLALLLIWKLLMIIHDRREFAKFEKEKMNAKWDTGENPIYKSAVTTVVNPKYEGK
The experiment in a line: U937/VCAM-1 cell adhesion test. The format is cell-based. The following applies: human U937 cells (ATCC CRL 1593); recombinant hVCAM-1(1-3)-IgG; read-out: IC50 (inhibition of the adhesion of U937 cells to hVCAM-1(1-3)-IgG by 50%). The source says:
A) U937/VCAM-1 Cell Adhesion Test
The test method used for the activity of the compounds of formula I on the interaction between VCAM-1 and VLA-4 is the assay described below, which is specific for this interaction. The cellular binding components, i.e., the VLA-4 integrins, are supplied in their natural form as surface molecules on human U937 cells (ATCC CRL 1593), which belong to the leukocytes group. As specific binding components, recombinant soluble fusion proteins prepared by genetic engineering, consisting of the extracytoplasmic domain of human VCAM-1 and the constant region of a human immunoglobulin of subclass IgG1, are used.
Assay for the measurement of the adhesion of U937 cells (ATCC CRL 1593) to hVCAM-1(1-3)-IgG
1. Preparation of Human VCAM-1(1-3)-IgG and Human CD4-IgG
A genetic construct for the expression of the extracellular domain of human VCAM-1, combined with the genetic sequence of the heavy chain of the human immunoglobulin IgG1 (hinge, CH2 and CH3 regions) (from Dr. Brian Seed, Massachusetts General Hospital, Boston, USA; cf. Damle and Aruffo, Proc. Natl. Acad. Sci. USA, 88:6403 (1991)), was employed. The soluble fusion protein hVCAM-1(1-3)-IgG contained the three amino-terminal extracellular immunoglobulin-like domains of human VCAM-1 (Damle and Aruffo, Proc. Natl. Acad. Sci. USA, 88:6403 (1991)). CD4-IgG (Zettlmeissl et al., DNA and Cell Biology, 9:347 (1990)) served as a fusion protein for negative controls. The recombinant proteins were expressed as soluble proteins after DEAE/dextran-mediated DNA transfection in COS cells (ATCC CRL1651) according to standard procedures (Ausubel et al., “Current Protocols in Molecular Biology”, John Wiley & Sons, Inc., 1994).
2. Assay for the Measurement of the Adhesion of U937 Cells to hVCAM-1 (1-3)-IgG
2.1 96 well microtiter test plates (Nunc Maxisorb) were incubated at room temperature for 1 hour with 100 μL/well of a goat anti-human IgG antibody solution (10 μg/mL in 50 mM tris, pH 9.5). After removal of the antibody solution, washing was carried out once with PBS.
2.2 150 μL/well of a blocking buffer (1% BSA in PBS) were incubated on the plates at room temperature for 0.5 hour. After removal of the blocking buffer, washing was carried out once with PBS.
2.3 100 μL per well of a cell culture supernatant of transfected COS cells were incubated on the plates at room temperature for 1.5 hours. The COS cells were transfected with a plasmid which codes for the three N-terminal immunglobulin-like domains of VCAM-1, coupled to the Fc part of human IgG1 (hVCAM-l (1-3)-IgG). The content of hVCAM-1(1-3)-IgG was about 0.5-1 μg/mL. After removal of the culture supernatant, washing was carried out once with PBS.
2.4 The plates were incubated at room temperature for 20 minutes with 100 μL/well of Fc receptor block buffer (1 mg/mL γ-globulin, 100 mM NaCl, 100 μM MgCl2, 100 μM MnCl2, 100 μM CaCl2, 1 mg/mL BSA in 50 mM HEPES, pH 7.5). After removal of the Fc receptor block buffer, washing was carried out once with PBS.
2.5 20 μL of binding buffer (100 mM NaCl, 100 μM MgCl2, 100 μM MnCl2, 100 μM CaCl2, 1 mg/mL BSA in 50 mM HEPES, pH 7.5) were introduced, the substances to be tested were added in 10 μL of binding buffer and incubation was carried out for 20 minutes. Antibodies against VCAM-1 (BBT, No. BBA6) and against VLA-4 (Immunotech, No. 0764) served as controls.
2.6 U937 cells were incubated for 20 minutes in Fc receptor block buffer and then added by pipette in a concentration of 1×10^6/mL and in an amount of 100 μL per well (final volume […]).
2.7 The plates were slowly immersed at an angle of 45° in stop buffer (100 mM NaCl, 100 μM MgCl2, […], 100 μM CaCl2 in 25 mM tris, pH 7.5) and shaken off. The process was repeated.
2.8 50 μL/well of a dye solution (16.7 μg/mL of Hoechst dye 33258, 4% formaldehyde, 0.5% Triton X-100 in PBS) were then incubated on the plates for 15 minutes. […]

Turning to `COc1cc(CN2C(=O)N([C@@H](CC3CC3)C(=O)NC(CC(=O)O)c3cccnc3)C(=O)C2(C)C)ccc1NC(=O)Nc1ccccc1C` (stereo partly drawn) [Example 10, 3-((S)-2-(4,4-Dimethyl-3-(4-(3-(2-methylphenyl)ureido)-3-methoxybenzyl)-2,5-dioxoimidazolidin-1-yl)-2-(cyclopropylmethyl)acetylamino)-3-(3-pyridyl)propionic Acid Hydrochloride], the IC50 stood at 0.6 nM. As for `Cc1ccccc1NC(=O)Nc1ccc(CN2C(=O)N([C@@H](CC3CC3)C(=O)N[C@H](C)CC(=O)O)C(=O)C2(C)C)cc1O` [Example 5, (R)-3-((S)-2-(4,4-Dimethyl-3-(4-(3-(2-methylphenyl)ureido)-3-hydroxybenzyl)-2,5-dioxoimidazolidin-1-yl)-2-(cyclopropylmethyl)acetylamino)-3-methylpropionic Acid], the IC50 came to 25.9 nM. The value for `COc1cc(CN2C(=O)N([C@@H](CC3CC3)C(=O)N[C@@H](CC(=O)O)c3ccccc3)C(=O)C2(C(F)(F)F)C(F)(F)F)ccc1NC(=O)Nc1ccccc1C` [Example 19, (S)-3-((S)-2-(4,4-Bis(trifluoromethyl)-3-(4-(3-(2-methylphenyl)ureido)-3-methoxybenzyl)-2,5-dioxoimidazolidin-1-yl)-2-(cyclopropylmethyl)acetylamino)-3-phenylpropionic Acid] was 4.4 nM; that for `COc1cc(CN2C(=O)N([C@@H](CC3CC3)C(=O)NC(CC(=O)O)c3ccccn3)C(=O)C2(C)C)ccc1NC(=O)Nc1ccccc1C` (stereo partly drawn) [Example 16, 3-((S)-2-(4,4-Dimethyl-3-(4-(3-(2-methylphenyl)ureido)-3-methoxybenzyl)-2,5-dioxoimidazolidin-1-yl)-2-(cyclopropylmethyl)acetylamino)-3-(2-pyridyl)propionic Acid] was 0.9 nM. The value for `COc1cc(CN2C(=O)N([C@@H](CC3CC3)C(=O)N[C@H](C)CC(=O)O)C(=O)C2(C)C)ccc1NC(=O)Nc1ccccc1C` [Example 1, (R)-3-((S)-2-(4,4-Dimethyl-3-(4-(3-(2-methylphenyl)ureido)-3-methoxybenzyl)-2,5-dioxoimidazolidin-1-yl)-2-(cyclopropylmethyl)acetylamino)-3-methylpropionic Acid] was 0.3 nM.

With `COc1cc(CN2C(=O)N([C@@H](CC3CC3)C(=O)NC(CC(=O)O)c3ccncc3)C(=O)C2(C)C)ccc1NC(=O)Nc1ccccc1C` (stereo partly drawn) [Example 13, 3-((S)-2-(4,4-Dimethyl-3-(4-(3-(2-methylphenyl)ureido)-3-methoxybenzyl)-2,5-dioxoimidazolidin-1-yl)-2-(cyclopropylmethyl)acetylamino)-3-(4-pyridyl)propionic Acid Hydrochloride], the half-inhibitory concentration (IC50) came to 1.8 nM. The value for `COc1cc(CN2C(=O)N([C@@H](CC3CC3)C(=O)N[C@H](C)CC(=O)O)C(=O)C2(C)C)ccc1NC(=O)Nc1ccccc1` [Example 7, (R)-3-((S)-2-(4,4-Dimethyl-3-(4-(3-phenylureido)-3-methoxybenzyl)-2,5-dioxoimidazolidin-1-yl)-2-(cyclopropylmethyl)acetylamino)-3-methylpropionic Acid] was 2.1 nM; that for `COc1cc(CN2C(=O)N([C@@H](CC3CC3)C(=O)N[C@H](C)CC(=O)O)C(=O)C2(C)C)ccc1NC(=O)Nc1ccccc1C` [Example 2] was 0.5 nM.
